Laboratory results published in PMC7442133, “Reduced treatment frequencies with bumped kinase inhibitor 1369 are effective against porcine cystoisosporosis” (International Journal for Parasitology: Drugs and Drug …, 2020).

What was measured:
C. suis merozoites = experiment: Merozoite replication (growth) inhibition in infected IPEC-1 cultures, free merozoites counted 9 dpi; format: cell-based, Cystoisospora suis; details: 400 nM once at 2 dpi; vs DMSO-only and no-treatment controls
Method: The laboratory strain C. suis Wien I ([Joachim and Mundt, 2011]), was maintained by passage in suckling piglets every 3–6 months and infectivity in vivo was assessed regularly at the Institute of Parasitology, University of Veterinary Medicine, Vienna. Oocysts were purified from collected feces, brought to sporulation and stored as described elsewhere ([Worliczek et al., 2013]). For in vitro studies, sporozoites were excysted ([Worliczek et al., 2013]), enumerated with a hemocytometer and used immediately for infection of semi-permanent intestinal porcine epithelial cells (IPEC-1). For in vivo studies, sporulated oocysts were washed with tap water and enumerated prior to infection of piglets.
IPEC-1 cells were maintained in culture medium at 37 °C and 5% CO2 (DHEM/HAM12 supplemented with 5% fetal calf serum and penicillin/streptomycin; Gibco via Thermo Fisher, Vienna, Austria). Cells (4 × 10^4) were used to seed 24-well plates and grown to confluence. All BKI compounds were stored as 20 mM stock solutions in 100% dimethyl sulfoxide (DMSO) at −20 °C. Cell viability in the presence of DMSO and BKIs was determined by colorimetric cell proliferation (WST-1) assays ([Shrestha et al., 2019]). In addition IPEC-1 cells were infected with serial dilutions of C. suis sporozoites, obtained after excystation to evaluate the growth curves of merozoites during 5–9 days of cultivation. To determine the effect of BKI 1369 on parasite replication, sporozoites (5 × 10^2) were added to each well one day after seeding of host cells and incubated with different concentrations of BKI 1369 at 40 °C for various time periods or a DMSO control, in triplicate.
In order to test whether BKI 1369 affects initial host cell invasion by C. suis, freshly excysted sporozoites were pre-incubated with BKI 1369 or DMSO for 6 h at 37 °C. Subsequently, sporozoites were washed with medium and used for infection of cell monolayers (5 × 10^2/well), in triplicate. Readout for both growth (merozoite replication) and invasion-inhibition experiments was microscopical evaluation by counting free merozoites 9 days post-infection (dpi) from culture supernatants. Supernatants were collected and free merozoites were counted in pooled samples at 9 dpi from quadruplicate wells in C-Chip disposable hemocytometers (NanoEnTek/Roth Lactan, Graz, Austria). All assays included DMSO and no-treatment controls in quadruplicate.
Statistical calculations for in vivo trials were performed with RStudio version 1.1.453 (RStudio Team, 2018), descriptive statistics with Microsoft Excel 2010 (Microsoft Inc., Vienna, Austria) and GraphPad Prism version 5.04 for Windows (GraphPad Software, San Diego, California USA). Differences in clinical and parasitological parameters between groups were analyzed with ANOVA in the case of normal distribution and variance homogeneity of the data, or a Kruskal-Wallis rank sum test if this was not the case. In the event of significance for the omnibus tests, parametric or non-parametric post-hoc tests for multiple comparisons were performed (according to Tukey and Conover, respectively), with P-value adjustment after Bonferroni. In vitro assays were evaluated by t-tests with significance reported at P < 0.05. For testing of efficacy in vitro, the percentage of growth/invasion inhibition was calculated as follows: % inhibition = (1−No. of merozoites counted at 9 dpi in BKI 1369 treated culture /No. of merozoites counted at 9 dpi in DMSO-only treated culture)x100

[1] = Fecal drug kinetics: BKI concentrations in pooled feces by LC-MS/MS; format: in vivo, piglets
Method: Additionally, to determine exposure to BKI 1369 and its metabolites, BKI 1318 and BKI 1817, pooled fecal samples per group were collected before treatment (−24 h), 2, 24 and 48 h after treatment and at the end of the study (SD 29; experiment I). Approximately 1 g of feces was soaked overnight in 3 ml phosphate buffered saline (PBS, pH 7.4). The following day, 12 ml of acetonitrile containing 100 μM propanolol as an internal standard was added and the mixture was thoroughly vortexed and centrifuged at 1000×g for 30 min. Clear supernatant was then transferred to Eppendorf tubes and concentrated in a miVac® Duo Concentrator (SP Scientific, Pennsylvania, USA) at 35 °C. Control/blank samples spiked with known amounts of target analyte were processed in tandem to provide a standard curve. The concentrated samples were shipped to the University of Washington and were stored at −20 °C until analysis by liquid chromatography-tandem mass spectrometry (LC-MS/MS) to determine fecal pharmacokinetics. All LC-MS/MS analyses were carried out on a Waters Acquity UPLC coupled with a Xevo TQS Micro and analyzed using MassLynx software (Waters Corporation, Milford, MA, USA). Extraction and LC-MS/MS conditions are described in detail in the Supplementary File S1.
Tissue and feces from vehicle control treated piglets were used as blanks or standards. Calibration curves for BKI 1369, BKI 1318, and BKI 1817 were prepared by adding 2 μL BKI in dimethylsulfoxide (DMSO) to 18 μL tissue or feces controls to generate nominal concentrations of 0.004, 0.008, 0.02, 0.04, 0.08, 0.2, 0.4, 0.8, 2, 5, 10, and 20 μM. Calibration curves were generated separately for each tissue type and feces.
5 μL of tissue homogenate curves and samples were added to tubes that contained 95 μL of 80:20 acetonitrile: water. As an internal standard, propranolol was added to each sample to a final concentration of 20 nM. Samples were dried to completion using a miVac Duo Concentrator (SP Scientific, Pennsylvania, USA) at 35 °C. Sample processing for feces was similar but utilized a slightly different process to concentrate the sample as explained in the methods. Dried Samples were sealed and shipped to the University of Washington for LC-MS/MS analysis.

## CN1CCC(Cn2nc(-c3ccc4nc(O)ccc4c3)c3c(N)ncnc32)CC1 [BKI 1817]
C. suis merozoites
  Decrease of total merozoite counts: 69.6%
[1]; Group A (20 mg BKI 1369/kg BW; 0 dpi), SD 2, −24 h (before treatment)
  Concentration in pooled fecal samples: 0.0 µM
[1]; Group A (20 mg BKI 1369/kg BW; 0 dpi), SD 3, 2 h post first-dose
  Concentration in pooled fecal samples: 0.0 µM
[1]; Group A (20 mg BKI 1369/kg BW; 0 dpi), SD 4, 24 h post first-dose
  Concentration in pooled fecal samples: 54.0 µM
[1]; Group A (20 mg BKI 1369/kg BW; 0 dpi), SD 5, 48 h post first-dose
  Concentration in pooled fecal samples: 60.8 µM
[1]; Group A (20 mg BKI 1369/kg BW; 0 dpi), SD 29, 624 h post first-dose
  Concentration in pooled fecal samples: 0.0 µM
[1]; Group A: single treatment 20 mg BKI 1369/kg on SD 3, pooled feces
  Cmax: 60.8 µM
[1]; Group A: single treatment 20 mg BKI 1369/kg on SD 3, pooled feces, post dose
  Fecal Tmax: 48 h
[1]; Group B (20 mg BKI 1369/kg BW; 2 dpi), SD 4, −24 h (before treatment)
  Concentration in pooled fecal samples: 0.0 µM
[1]; Group B (20 mg BKI 1369/kg BW; 2 dpi), SD 5, 2 h post first-dose
  Concentration in pooled fecal samples: 0.0 µM
[1]; Group B (20 mg BKI 1369/kg BW; 2 dpi), SD 6, 24 h post first-dose
  Concentration in pooled fecal samples: 0.8 µM
[1]; Group B (20 mg BKI 1369/kg BW; 2 dpi), SD 7, 48 h post first-dose
  Concentration in pooled fecal samples: 53.5 µM
[1]; Group B (20 mg BKI 1369/kg BW; 2 dpi), SD 29, 576 h post first-dose
  Concentration in pooled fecal samples: 0.0 µM
[1]; Group B: single treatment 20 mg BKI 1369/kg on SD 5, pooled feces, post-dose
  Fecal Tmax: 48 h
[1]; Group C (20 mg BKI 1369/kg BW; 2 and 4 dpi), SD 4, −24 h (before treatment)
  Concentration in pooled fecal samples: 0.0 µM
[1]; Group C (20 mg BKI 1369/kg BW; 2 and 4 dpi), SD 5, 2 h post first-dose
  Concentration in pooled fecal samples: 0.0 µM
[1]; Group C (20 mg BKI 1369/kg BW; 2 and 4 dpi), SD 6, 24 h post first-dose
  Concentration in pooled fecal samples: 130.0 µM
[1]; Group C (20 mg BKI 1369/kg BW; 2 and 4 dpi), SD 7, 48/2 h post 2nd dose
  Concentration in pooled fecal samples: 280.8 µM
[1]; Group C (20 mg BKI 1369/kg BW; 2 and 4 dpi), SD 8, 72/24 h post 2nd dose
  Concentration in pooled fecal samples: 331.6 µM
[1]; Group C (20 mg BKI 1369/kg BW; 2 and 4 dpi), SD 9, 96/48 h post 2nd dose
  Concentration in pooled fecal samples: 537.0 µM
[1]; Group C: 20 mg BKI 1369/kg on SD 5 and SD 7, pooled feces
  Cmax: 537 µM
[1]; Group C: 20 mg BKI 1369/kg on SD 5 and SD 7, pooled feces, post first-dose
  Fecal Tmax: 96 h
[1]; after oral BKI 1369, piglets
  Excretion via the feces (in words): major metabolite excreted in the feces
